The results in this text go back to patent US6498163B1, “Pyrido[2,3-D]pyrimidines and 4-aminopyrimidines as inhibitors of cellular proliferation” (Warner-Lambert Company, priority 1997, dated 2002).

Counter-ions that a name gives are not always drawn. Like-named read-outs stand apart in the source and are kept apart here.

One data set concerns the target cdk4/D (Homo sapiens, UniProt P11802). Put plainly: Cyclin-dependent kinase 4 (cdk4) assay. The settings on record: for cdk4/D % inhibition at 40 μM: Table 2. It is filed as biochemical. As for the experimental part: As noted above, the compounds of this invention are potent inhibitors of cyclin-dependent kinases, and accordingly, are useful in treating and preventing atherosclerosis, and other cell proliferative disorders like cancer. […] A typical assay, for instance, measures inhibitory activity against the cyclin D dependent kinase 4 enzyme (cdk4/D). […] The cdk 4 assay was carried out as follows.
Cyclin-Dependent Kinase 4 (cdk4) Assay
The total volume was 0.1 mL containing a final concentration of 20 mM TRIS (tris[hydroxymethyl]aminomethane), at pH 7.4, 50 mM NaCl, 1 mM dithiothreitol, 10 mM MgCl2, 25 μM ATP containing 0.25 μCi of [^32P]ATP, 20 ng of cdk4, 1 μg of retinoblastoma, and appropriate dilutions of a compound of the present invention. All components except the ATP were added to the wells, and the plate was placed on a plate mixer for 2 minutes. The reaction was started by adding [^32P]ATP and the plate was incubated at 25° C. for 15 minutes. The reaction was terminated by addition of 0.1 mL of 20% trichloroacetic acid (TCA). The plate was kept at 4° C. for at least 1 hour to allow the substrate to precipitate. The wells were then washed five times with 0.2 mL of 10% TCA and ^32P incorporation was determined with a beta plate counter (Wallac Inc., Gaithersburg, Md.).

Data set [1] has as its target T1, PDGF-β receptor tyrosine kinase (Mus musculus, UniProt P05622).
T1 construct: amplify a fragment of DNA that codes for the intracellular tyrosine kinase domain; made in house; host or cells: SF9 insect cells (baculovirus)
Put plainly: PDGF receptor tyrosine kinase assay. It is filed as biochemical. Conditions: Table 4, Formula II compound. The procedure:
(§1) The compounds of Formulas I and II also have shown good inhibitory activity against certain growth factor receptor tyrosine kinase enzymes, including fibroblast growth factor (FGF) and platelet derived growth factor (PDGF). […] The invention compounds range in IC50 inhibition against FGF tyrosine kinase generally from about 0.004 to about 40 μM. […] The assays used to determine these activities were carried out as follows:
(§2) PDGF and EGF Receptor Tyrosine Kinase Assays
(§3) Full-length cDNAs for the mouse PDGF-β and human FGF-1 (flg) receptor tyrosine kinases were obtained from J. Escobedo and prepared as described in J. Biol. Chem., 1991;262:1482-1487. PCR primers were designed to amplify a fragment of DNA that codes for the intracellular tyrosine kinase domain. The fragment was inserted into a baculovirus vector, cotransfected with AcMNPV DNA, and the recombinant virus isolated. SF9 insect cells were infected with the virus to overexpress the protein, and the cell lysate was used for the assay. […] Filters were washed three times with 15% TCA containing 100 mM sodium pyrophosphate, and the radioactivity retained on the filters counted in a Wallac 1250 Betaplate reader. Nonspecific activity was defined as radioactivity retained on the filters following incubation of samples with buffer alone (no enzyme). […]

Data set [2] has as its target T2, FGF-1 (flg) receptor tyrosine kinase (Homo sapiens, UniProt P11362).
T2 construct: amplify a fragment of DNA that codes for the intracellular tyrosine kinase domain; made in house; host or cells: SF9 insect cells (baculovirus)
Put plainly: FGF receptor tyrosine kinase assay. It is filed as biochemical. The settings on record: Table 4, Formula II compound. The procedure: as §1, §2, §3

A short description of data set [3]: Plasma levels in mice after dosing. It is filed as in vivo, nude mice. The settings on record: intraperitoneally at 12 mg/kg, at 30 minutes following dosing. The procedure:
For example, the compound of Example 60 was administered orally at 5 mg/kg to mice, and plasma levels of about 200 nM were measured at 30 minutes following dosing. The compound was also administered intraperitoneally at 12 mg/kg and produced a peak plasma concentration of 10,000 nM at 30 minutes following dosing.

In data set [4] the test system is MCF-7 human mammary tumor xenografts. Description: MCF-7 human mammary tumor xenograft. The settings on record: 5 to 20 mg/kg, q12 h×2; days 1-14, subcutaneous MCF-7 xenografts. It is filed as in vivo, female nude mice.
The target of the next data set is cdc2/cyclinB (Homo sapiens, UniProt P06493). Description: Cyclin-dependent kinase assay cdc2/cyclinB (cdk1/B). It is filed as biochemical. The settings on record: Table 1.
cdc2/cyclinB, sequence (P06493 whole entry, species assumed): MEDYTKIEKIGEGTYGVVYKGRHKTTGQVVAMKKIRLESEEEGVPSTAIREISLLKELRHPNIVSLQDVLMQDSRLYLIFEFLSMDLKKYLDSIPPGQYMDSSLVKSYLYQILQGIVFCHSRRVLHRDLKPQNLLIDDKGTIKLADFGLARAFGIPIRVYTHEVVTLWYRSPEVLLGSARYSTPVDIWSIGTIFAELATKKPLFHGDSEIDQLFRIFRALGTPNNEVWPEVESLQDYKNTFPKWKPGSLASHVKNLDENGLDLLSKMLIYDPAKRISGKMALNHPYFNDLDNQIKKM
cdc2/cyclinB, sequence (P14635 whole entry partner, species assumed): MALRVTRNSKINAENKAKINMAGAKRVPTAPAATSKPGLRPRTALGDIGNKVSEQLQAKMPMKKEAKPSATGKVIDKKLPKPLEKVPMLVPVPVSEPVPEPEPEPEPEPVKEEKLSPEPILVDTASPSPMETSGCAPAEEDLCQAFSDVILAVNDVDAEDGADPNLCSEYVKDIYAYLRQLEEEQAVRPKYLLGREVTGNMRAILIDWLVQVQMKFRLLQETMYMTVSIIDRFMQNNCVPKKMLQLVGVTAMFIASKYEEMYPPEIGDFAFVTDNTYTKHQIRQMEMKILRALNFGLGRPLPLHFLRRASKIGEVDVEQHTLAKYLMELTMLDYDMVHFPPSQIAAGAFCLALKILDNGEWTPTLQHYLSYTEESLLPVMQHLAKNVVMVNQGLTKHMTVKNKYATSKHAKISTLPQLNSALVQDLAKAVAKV
The mark [5] stands for this setting: Table 2, Formula II compounds, read-out: cdk4/IC50 IC50.

cdk4/D, sequence (P11802 whole entry, species assumed): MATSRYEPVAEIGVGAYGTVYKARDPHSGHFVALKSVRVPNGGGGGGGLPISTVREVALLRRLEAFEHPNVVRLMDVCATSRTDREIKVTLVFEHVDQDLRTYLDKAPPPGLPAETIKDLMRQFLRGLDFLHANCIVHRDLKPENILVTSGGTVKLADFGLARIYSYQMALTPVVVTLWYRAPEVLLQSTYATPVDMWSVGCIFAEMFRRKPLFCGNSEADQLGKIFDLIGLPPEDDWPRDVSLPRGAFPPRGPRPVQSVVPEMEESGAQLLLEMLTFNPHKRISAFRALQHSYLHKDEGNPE
cdk4/D, sequence (P24385 whole entry partner, species assumed): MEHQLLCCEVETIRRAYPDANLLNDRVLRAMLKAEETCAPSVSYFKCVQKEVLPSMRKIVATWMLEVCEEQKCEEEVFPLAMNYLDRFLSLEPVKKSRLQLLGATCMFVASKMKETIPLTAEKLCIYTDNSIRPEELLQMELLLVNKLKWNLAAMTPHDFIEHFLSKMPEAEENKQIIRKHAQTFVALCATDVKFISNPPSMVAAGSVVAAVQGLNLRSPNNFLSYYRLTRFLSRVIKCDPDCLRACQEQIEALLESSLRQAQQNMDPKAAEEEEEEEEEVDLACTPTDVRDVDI
T2 sequence (P11362 478-767 limits assumed): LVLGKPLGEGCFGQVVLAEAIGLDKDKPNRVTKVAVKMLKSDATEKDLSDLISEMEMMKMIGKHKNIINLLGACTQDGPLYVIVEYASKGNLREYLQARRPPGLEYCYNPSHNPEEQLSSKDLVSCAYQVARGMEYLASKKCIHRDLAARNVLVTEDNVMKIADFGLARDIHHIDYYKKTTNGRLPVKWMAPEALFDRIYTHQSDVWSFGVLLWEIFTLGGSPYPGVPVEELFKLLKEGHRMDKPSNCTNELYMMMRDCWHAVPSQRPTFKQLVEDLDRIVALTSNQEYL
T1 sequence (P05622 599-961 limits assumed): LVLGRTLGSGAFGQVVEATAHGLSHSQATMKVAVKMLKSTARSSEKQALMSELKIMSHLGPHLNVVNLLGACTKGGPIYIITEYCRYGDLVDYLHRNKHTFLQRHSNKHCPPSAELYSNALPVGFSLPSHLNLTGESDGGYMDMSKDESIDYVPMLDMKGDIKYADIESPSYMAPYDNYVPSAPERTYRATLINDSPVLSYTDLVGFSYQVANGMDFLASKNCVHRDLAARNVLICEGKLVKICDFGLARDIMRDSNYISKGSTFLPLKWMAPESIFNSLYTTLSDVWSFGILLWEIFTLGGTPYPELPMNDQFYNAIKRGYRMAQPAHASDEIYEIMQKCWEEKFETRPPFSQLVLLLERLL

With `O=c1ccc2cnc(Nc3ccc(N4CCCC(CO)C4)cc3)nc2n1C1CCCCC1` (stereo not drawn) [Example 185, 8-Cyclohexyl-2-[4-(3-hydroxymethyl-piperidin-1-yl)-phenylamino]-8H-pyrido[2,3-d]pyrimidin-7-one], the melting point is 194 to 195 °C. `CC(C)Nc1ncc2ccc(=O)n(C)c2n1` [Example 67, 2-Isopropylamino-8-methyl-8H-pyrido[2,3-d]pyrimidin-7-one] showed a melting point of 148 to 149 °C. `CCNc1nc(Nc2ccccc2)ncc1/C=C/C(=O)OCC` [Example 17, Ethyl 3-(4-Ethylamino-2-phenylamino-pyrimidin-5-yl)acrylate] yielded a melting point of 125 to 126 °C. For the same molecule, on cdk4/D (setting [5]), the IC50 worked out at 2000 nM. The molecule further showed an IC50 in data set [1] of 3700 nM. Moreover, in data set [2], the IC50 stood at 4500 nM. As for `CC(C)n1c(=O)ccc2cnc(Nc3ccc(N4CCN(C)CC4)cc3)nc21` [Example 60, 8-Isopropyl-2-[4-(4-methylpiperazin-1-yl)-phenylamino]-8H-pyrido[2,3-d]pyrimidin-7-one], the peak plasma concentration in data set [3] is 10,000 nM. Besides, in data set [4], the tumor growth inhibition result is listed as “statistically insignificant tumor growth inhibitions”.

With `COc1ccc(CNc2ncc3ccc(=O)n(C(C)C)c3n2)cc1OC` [Example 256, 2-(3,4-Dimethoxy-benzylamino)-8-isopropyl-8H-pyrido[2,3-d]pyrimidin-7-one], the melting point is 128 °C. In turn, `CN(C)CCCN1CCN(c2ccc(Nc3ncc4ccc(=O)n(C5CCCCC5)c4n3)cc2)CC1` [Example 144, 8-Cyclohexyl-2-{4-[4-(3-dimethylamino-propyl)-piperazin-1-yl]-phenylamino}-8H-pyrido[2,3-d]pyrimidin-7-one] came in with a melting point of 169 to 170 °C. For the molecule “3-(4-Ethylamino-2-phenylamino-pyrimidin-5-yl)-but-2-enoic acid ethyl ester [Example 73]”, on cdk4/D, the “cdk4/D % inhibition at 40 μM” value is 58%. Consider `CN1CCN(c2ccc(Nc3ncc4ccc(=O)n(CCOCc5ccccc5)c4n3)cc2)CC1` [Example 140, 8-(2-Benzyloxy-ethyl)-2-[4-(4-methyl-piperazin-1-yl)-phenylamino]-8H-pyrido[2,3-d]pyrimidin-7-one], for which the melting point is 183 to 185 °C.

As for `O=c1ccc2cnc(Nc3ccc(N4CCCCC4)cc3)nc2n1C1CC2CCC1C2` (stereo not drawn) [Example 181, 8-Bicyclo[2.2.1]hept-2-yl-2-(4-piperidin-1-yl-phenylamino)-8H-pyrido[2,3-d]pyrimidin-7-one], the melting point lay within 243 to 244 °C. Molecule `O=c1ccc2cnc(Nc3ccc(N4CCCCC4)cc3)nc2n1C1CC2CCC1C2` (stereo not drawn) [Example 229, 8-Bicyclo[2.2.1]hept-2-yl-2-(4-piperidin-1-yl-phenylamino)-8H-pyrido[2,3-d]pyrimidin-7-one] gave a melting point of 209 °C.

For the molecule `O=c1ccc2cnc(NCc3ccccc3)nc2n1C1CCCCC1` [Example 222, 2-Benzylamino-8-cyclohexyl-8H-pyrido[2,3-d]pyrimidin-7-one], the melting point was in the range of 183 to 184 °C. The same measure, in the same setting: with `O=c1ccc2cnc(NCCCN3CCCCC3)nc2n1C1CCCCC1` [Example 166, 8-Cyclohexyl-2-(3-piperidin-1-yl-propylamino)-8H-pyrido[2,3-d]pyrimidin-7-one] the figure was 111 to 112 °C; with `CCOC(=O)C1CCN(c2ccc(Nc3ncc4ccc(=O)n(C5CCCCC5)c4n3)cc2)CC1` [Example 164, 1-[4-(8-Cyclohexyl-7-oxo-7,8-dihydro-pyrido[2,3-d]pyrimidin-2-ylamino)-phenyl]-piperidine-4-carboxylic acid ethyl ester], 174 to 175 °C. For “3-(4-Ethylamino-2-phenylamino-pyrimidin-5yl)acrylonitrile [Example 72]”, the “cdk4/D % inhibition at 40 μM” value at cdk4/D is reported as 18%. `CCOC(=O)/C=C/c1cnc(Nc2ccccc2)nc1N` [Example 28, Ethyl 3-(4-Amino-2-phenylamino-pyrimidin-5-yl)acrylate]: the melting point is 190 to 192 °C. Also, on cdk4/D (setting [5]), the IC50 turned out to be 65000 nM.

As for `O=c1ccc2cnc(NCCN3CCCCC3)nc2n1C1CCCCC1` [Example 165, 8-Cyclohexyl-2-(2-piperidin-1-yl-ethylamino)-8H-pyrido[2,3-d]pyrimidin-7-one], the melting point lay in the range of 156 to 157 °C.

In the case of `O=c1ccc2cnc(Nc3ccccc3)nc2n1CCCOCc1ccccc1` [Example 38, 8-(3-Benzyloxypropyl)-2-phenylamino-8H-pyrido[2,3-d]pyrimidin-7-one], the IC50 worked out at 2700 nM at cdk4/D (Table 1, read-out: cdk4/D IC50) and 29800 nM on cdc2/cyclinB. For the molecule `CCn1c(=O)c(C)cc2cnc(Nc3ccc(N4CCC(CCCN5CCOCC5)CC4)cc3)nc21` [Example 264, 8-Ethyl-6-methyl-2-{4-[4-(3-morpholin-4-yl-propyl)-piperidin-1-yl]-phenylamino}-8H-pyrido[2,3-d]pyrimidin-7-one], the melting point lay in the range of 199 to 200 °C.

For the molecule `CCn1c(=O)ccc2cnc(NC(C)C)nc21` (as salt: sulfate) [Example 47, 8-Ethyl-2-isopropylamino-8H-pyrido[2,3-d]pyrimidin-7-one], the melting point was in the range of 119 to 120 °C. Regarding `CN(C)c1ccc(Nc2ncc3ccc(=O)n(C4CCCCC4)c3n2)cc1` [Example 147, 8-Cyclohexyl-2-(4-dimethylamino-phenylamino)-8H-pyrido[2,3-d]pyrimidin-7-one], the IC50 came out at 480 nM at cdk4/D (Table 1, read-out: cdk4/D IC50) and 89 nM at cdc2/cyclinB. Turning to `CCCCn1c(=O)ccc2cnc(Nc3ccccc3)nc21` [Example 40, 8-Butyl-2-phenylamino-8H-pyrido[2,3-d]pyrimidin-7-one], the melting point was in the range of 183 to 184 °C.

`O=c1ccc2cnc(Nc3ccc(N4CCCCC4)cc3)nc2n1C1CCCCCC1` [Example 163, 8-Cycloheptyl-2-(4-piperidin-1-yl-phenylamino)-8H-pyrido[2,3-d]pyrimidin-7-one]: the melting point was in the range of 201 to 202 °C. As for `CCn1c(=O)c(C)cc2cnc(Nc3ccc(N4CCN(C)CC4)cc3)nc21` [Example 84], the IC50 on cdk4/D (Table 1, read-out: cdk4/D IC50) is 180 nM.

In turn, `O=c1ccc2cnc(Nc3ccccc3)nc2n1-c1ccccc1` [Example 101, 2-Phenylamino-8-phenyl-8H-pyrido[2,3-]pyrimidin-7-one] displayed a melting point of 300 to 302 °C. For the molecule `O=c1ccc2cnc(Nc3ccc(SC(F)(F)F)cc3)nc2n1C1CC2CCC1C2` (stereo not drawn) [Example 221, 8-Bicyclo[2.2.1]hept-2-yl-2-(4-trifluoromethylsulfanyl-phenylamino)-8H-pyrido[2,3-d]pyrimidin-7-one], the melting point was 205 to 206 °C. For the molecule `CCC(CC)n1c(=O)ccc2cnc(Nc3ccc(N4CCN(C)CC4)cc3)nc21` [Example 77, 8-(1-Ethylpropyl)-2-[4-(4-methylpiperazin-1-yl)-phenylamino]-8H-pyrido[2,3-d]pyrimidin-7-one], the melting point lay in the range of 155 to 157 °C.
